Laboratory results reported in publication PMC6302136, “Quantitative Chemotherapeutic Profiling of Gynecologic Cancer Cell Lines Using Approved Drugs and Bioactive Compounds^” (Translational Oncology, 2018).
Where two headings read alike, the source gives them in different places.

How the values were obtained:
PA-1 cells = assay: ATP content (ATPlite) cell viability assay in PA-1 cells; type: cell-based, human; details: for IC50: Homo sapiens, PA-1, confirmation screen, 48 h, read-out: Avg IC50; for Avg SI: PA-1 selective compounds, vs HEK 293T, >100 = inactive in HEK293T
HEK 293T cells [1] = assay: cells; details: for Efficacy (%) (HEK 293T toxicity) / IC50: 48 h; for IC50: read-out: IC50 (HEK 293T toxicity)
Method: (§1) The ATPlite luminescence assay system assay kit was used to determine cell viability. The reagent was reconstituted and prepared as described by the manufacturer. To measure the cell death caused by the compounds, cells were cultured in 4 μl of media for 16 hours at 37°C with 5% CO2 in assay plates, followed by the addition of DMSO or 16 SOC chemotherapeutic compounds dissolved in DMSO. SOC compounds were dosed at 11 concentrations (1:3 dilution) in quadruplicate from 57.5 μM to 0.977 nM using the automated Wako 1536 Pin Tool workstation and incubated at 37°C with 5% CO2 for 24, 48, or 72 hours. Four microliters of ATPlite, the ATP monitoring reagent, was then added to each well of the assay plates using the Multidrop Combi reagent dispenser followed by incubation for 15 minutes at room temperature. The resulting luminescence was measured using the ViewLux plate reader. Data were normalized for each drug using the largest luminescence value as 100% full cell viability (0% cell killing) and to the smallest luminescence value 0% viability (100% cell killing).
(§2) A qHTS [79], in which each compound was assayed in five concentrations (0.092, 0.46, 2.3, 11.5, and 57.5 μM), was performed for the primary compound screen using the NPC [80] and NPACT drug libraries at NCATS. The OBGYN cancer and HEK 293T control cells were seeded into 1536-well assay plates at 1000 cells per 4 μl/well and incubated at 37°C in 5% CO2 for 48 hours. The ATPlite assay to determine the IC50 values for each compound was conducted as described above. Plates were processed on the fully integrated Kalypsys robotic system.

HEK 293T cells [2] = test system: HEK 293T cells; design: method as in PMID 31498718; details: CellTiterGlo, cited from earlier work; for IC50: independent screen
[3] = test system: 11 gynecologic cancer cell lines; assay: qHTS ATPlite cell viability, gynecologic cancer cell lines (ovarian, cervical, placental); type: cell-based, human; details: for IC50: 48 h; for Average SI: selectivity index vs HEK 293T; for IC90: average IC90 over the cell lines in which the compound is active, read-out: IC90; for Cell Lines Active: number of the 11 cancer cell lines in which the compound is active (<1 μM potency, >70% efficacy)
Method: as §1, §2

HeLa cells = assay: qHTS ATPlite cell viability, HeLa cells; type: cell-based, human; details: for Avg SI: HeLa selective compounds, vs HEK 293T; for IC50: HeLa, confirmation screen, 48 h
[4] = test system: placental cancer cell lines (JAR, JEG-3); assay: qHTS ATPlite cell viability, placental cancer cell lines; type: cell-based, human; details: for Average SI: vs HEK 293T, >100 = inactive in HEK293T
Method: as §1
The ATPlite assay to determine the IC50 values for each compound was conducted as described above. Plates were processed on the fully integrated Kalypsys robotic system.

[5] = test system: ovarian cancer cell lines; assay: qHTS ATPlite cell viability, ovarian cancer cell lines; type: cell-based, human; details: Ovarian cell line killer; for IC50: mean of cell lines fulfilling criteria, 48 h, read-out: Average IC50; for Average SI: vs HEK 293T, >100 = inactive in HEK293T
[6] = HEK 293T, this screen (ATPlite)
[7] = toxic compounds, average over all cancer cell lines, mean ± S.D.
[8] = Homo sapiens, JEG-3, Placental cancer cell line killer, mean of cell lines fulfilling criteria, 48 h, read-out: Average IC50
[9] = Placental cancer cell line killer

COc1c(C)c2c(c(O)c1C/C=C(\C)CCC(=O)OCCN1CCOCC1)C(=O)OC2 [Mycophenolate mofetil]
IC50 (PA-1 cells): 631 nM
Avg SI (PA-1 cells): >100
Avg SI (PA-1 cells; listed as mycophenolate mofetil): > 100

COc1ccc(-c2ccc3ncc4c(c3c2)n(-c2ccc(N3CCNCC3)c(C(F)(F)F)c2)c(=O)n4C)cn1 [NVP-BGT226]
Efficacy (%) (HEK 293T toxicity) (HEK 293T cells [1]; [6]): 106%
IC50 (HEK 293T cells [1]; Homo sapiens, HEK-293T): 258 nM
Efficacy (%) (independent screen, HEK 293T) (HEK 293T cells [2]): 115%
Independent Screen (confirmation of HEK 293T toxicity) (HEK 293T cells [2]): Confirmed toxic
IC50 (HEK 293T cells [2]): 14.5 nM
IC50 ([3]; Homo sapiens, toxic compounds, average over all cancer cell lines, mean ± S.D., read-out: Average IC50): 5.34 ± 6.56 µM
Average SI [3, 7]: 0.20 ± 0.26

COc1cc(N2CCC(N3CCN(C)CC3)CC2)ccc1Nc1ncc(Cl)c(Nc2ccccc2S(=O)(=O)C(C)C)n1 [NVP-TAE684]
Efficacy (%) (HEK 293T toxicity) (HEK 293T cells [1]; [6]): 91.8%
IC50 (HEK 293T cells [1]; [6]): 23400 nM
Avg SI (HeLa cells): 28.0
IC50 (HeLa cells): 835 nM
Efficacy (%) (independent screen, HEK 293T) (HEK 293T cells [2]): 126%
Independent Screen (confirmation of HEK 293T toxicity) (HEK 293T cells [2]): Confirmed toxic
IC50 (HEK 293T cells [2]): 3650 nM
IC50 ([3]; toxic compounds, average over all cancer cell lines, mean ± S.D., read-out: Average IC50): 15.7 ± 10 µM
Average SI [3, 7]: 4.87 ± 7.61

N=C(N)c1ccc(OCCCCCOc2ccc(C(=N)N)cc2)cc1 [Nebupent]
IC50 [4, 8]: 4.9 ± 1.02 µM
Average SI [4, 9]: >100

O=C(Nc1cccnc1)N1CCC(Cc2cccc(Oc3ccc(C(F)(F)F)cn3)c2)CC1 [PF-3845]
IC50 [4, 8]: 9.31 ± 1.15 µM
Average SI [4, 9]: >100

CC(C)CC(=O)Nc1[nH]nc2c1CN(C(=O)C1CCN(C)CC1)C2(C)C [PHA-793887]
IC50 (PA-1 cells): 194 nM
Avg SI (PA-1 cells): 12.3

COc1cccc2c1C(=O)c1c(O)c3c(c(O)c1C2=O)C[C@@](O)(C(=O)CO)C[C@@H]3O[C@H]1C[C@H](N)[C@H](O[C@@H]2CCCCO2)[C@H](C)O1 [Pirarubicin]
IC50 (PA-1 cells): 839 nM
Avg SI (PA-1 cells): 14.6

Cc1ccc(C(=O)Nc2ccc(CN3CCN(C)CC3)c(C(F)(F)F)c2)cc1C#Cc1cnc2cccnn12 [Ponantinib]
Efficacy (%) (HEK 293T toxicity) (HEK 293T cells [1]; [6]): 92%
IC50 (HEK 293T cells [1]; Homo sapiens, HEK-293T): 19900 nM
Efficacy (%) (independent screen, HEK 293T) (HEK 293T cells [2]): 92.6%
Independent Screen (confirmation of HEK 293T toxicity) (HEK 293T cells [2]): Confirmed toxic
IC50 (HEK 293T cells [2]): 811 nM
IC50 ([3]; Homo sapiens, read-out: Average IC50 (μM)): 15.9 ± 9.07 µM
Average SI [3, 7]: 3.56 ± 4.85

C=C(C)[C@H]1Cc2c(ccc3c2O[C@@H]2COc4cc(OC)c(OC)cc4[C@@H]2C3=O)O1 [Rotenone]
IC50 ([4]; Homo sapiens, JEG-3, 48 h, read-out: Average IC50 (μM)): 0.0418 ± 0.0134 µM
Average SI [4, 9]: 19.5 ± 6.26

CCc1c2c(nc3ccc(O)cc13)-c1cc3c(c(=O)n1C2)COC(=O)[C@]3(O)CC [SN-38]
IC90 [3]: 592 nM
Cell Lines Active [3]: 4

CNC(=O)c1ccccc1Nc1nc(Nc2ccc(N3CCOCC3)cc2OC)ncc1Cl [TAE226]
IC50 [5]: 5320 ± 1420 nM
Average SI [5]: 8.76 ± 2.40

CCS(=O)(=O)c1cccc(-c2cc(C(=O)NC3CCN(C)CC3)c(C)c3[nH]c4ncc(C)cc4c23)c1 [TAK 901]
Avg SI (HeLa cells): 12.6
IC50 (HeLa cells; Homo sapiens): 699 nM

CC[C@@H]1C(=O)N(C)c2cnc(Nc3ccc(C(=O)N[C@H]4CC[C@H](N5CCN(CC6CC6)CC5)CC4)cc3OC)nc2N1C(C)C [Volasertib]
IC50 [4, 8]: 0.0709 ± 0.00735 µM
Average SI [4, 9]: 131 ± 13.5
IC90 ([3]; Homo sapiens): 90 nM
Cell Lines Active [3]: 4

O=C(CCCCCCC(=O)Nc1ccccc1)NO [Vorinostat]
Efficacy (%) (HEK 293T toxicity) (HEK 293T cells [1]; [6]): 64.7%
toxicity to HEK 293T cells (HEK 293T cells [1]; compared with suppression of the 11 gynecologic cancer cell lines): equally toxic to HEK 293T cells
Efficacy (%) (independent screen, HEK 293T) (HEK 293T cells [2]): 80.2%
Independent Screen (confirmation of HEK 293T toxicity) (HEK 293T cells [2]): Confirmed toxic

C=CC(=O)Nc1cccc(Oc2nc(Nc3ccc(N4CCN(C)CC4)cc3)ncc2Cl)c1 [WZ3146]
IC50 [5]: 12300 ± 8520 nM
Average SI [5]: >100

i-Bet-151
IC50 ([4]; Placental cancer cell line killer, mean of cell lines fulfilling criteria, 48 h, read-out: Average IC50): 19.3 ± 9.13 µM
Average SI [4, 9]: >100
